The conditions of data set [1]: undergoes hydrolytic degradation; cited from earlier work.
Data set [2] can be described thus: Stability of guadecitabine sodium form A in methanol water (9/1 v/v) at 40° C. (HPLC contents). Type of data set: physicochemical. How it is done: Analytical HPLC Method Used for Measuring Guadecitabine Purity Column: 150×3.0 mm Luna Omega Polar C18, 1.6 μm at 40° C. Solvent A: 0.15 mL/l formic acid in water, pH adjusted with ammonia to 3.6. Solvent B: acetonitrile Gradient program: [table] [table] Example 23: Comparison of Guadecitabine Sodium Form A Stability in Water at 25° C. and Methanol Water (9/1 v/v) at 40° C.

A short description of data set [3]: Stability in aqueous media (statements in the description). Type of data set: physicochemical. The settings on record: aqueous phase of chromatography on C18 column.
Data set [4] is classed as physicochemical. How it is done: Analytical HPLC Method Used for Measuring Guadecitabine Purity
Column: 150×3.0 mm Luna Omega Polar C18, 1.6 μm at 40° C.
Solvent A: 0.15 mL/l formic acid in water, pH adjusted with ammonia to 3.6. Solvent B: acetonitrile Gradient program: […]
Example 23: Comparison of Guadecitabine Sodium Form A Stability in Water at 25° C. and Methanol Water (9/1 v/v) at 40° C.
In water stability of guadecitabine sodium form A was measured as follows.
Instrument method: autosampler temp. was set to 25° C. 10 mg of guadecitabine sodium form A was weighted in 2-mL vial in glovebox and 1 mL of water was added to have concentration exactly 10 mg/mL. Sample was injected freshly after preparation (0 min), 20 min after preparation (20 min) and afterwards every 40 min (duration of single analysis run).

The values below come from patent US20210147466A1, “IMPROVED PROCESSES FOR THE PREPARATION OF GUADECITABINE AND INTERMEDIATES THEREOF” (TEVA CZECH INDUSTRIES s.r.o., priority 2017, published 2021).

Where two headings read alike, the source gives them in different places. A value given as a limit tells only on which side of the number the result lay.

For the compound `Nc1ncn([C@H]2C[C@H](O)[C@@H](CO)O2)c(=O)n1` [Decitabine], the “stability in aqueous media” value in data set [1] is reported as “unstable”.

Consider `Nc1ncn([C@H]2C[C@H](OP(=O)(O)OC[C@H]3O[C@@H](n4cnc5c(=O)[nH]c(N)nc54)C[C@@H]3O)[C@@H](CO)O2)c(=O)n1` [guadecitabine, [(2R,3S,5R)-5-(2-amino-6-oxo-3H-purin-9-yl)-3-hydroxyoxolan-2-yl]methyl [(2R,3S,5R)-5-(4-amino-2-oxo-1,3,5-triazin-1-yl)-2-(hydroxymethyl)oxolan-3-yl] hydrogen phosphate], for which, in data set [2] (in methanol), the guadecitabine degradation result is “significantly suppressed”. Besides, the “stability in aqueous phase” value in data set [3] is listed as “not stable”.

For the compound `Nc1ncn([C@H]2C[C@H](OP(=O)([O-])OC[C@H]3O[C@@H](n4cnc5c(=O)[nH]c(N)nc54)C[C@@H]3O)[C@@H](CO)O2)c(=O)n1.[Na+]` [guadecitabine sodium], the “HPLC contents (%) Degradant 2a” value in data set [4] and in data set [2] was under 0.05% in each case. Besides, the “HPLC contents (%) Degradant 2b” value in data set [4] and in data set [2] was under 0.05% each time. Moreover, the “HPLC contents (%) Degradant 2c” value in data set [4] and in data set [2] was 0.14% each time. Further, the “HPLC contents (%) Degradant 2d” value is 0.05% in data set [4] and 0.10% in data set [2]. Further, the “HPLC contents (%) guadecitabine sodium” value is listed as 99.82% in data set [4] (Solution in DMSO, no time point (reference)); 99.80% in data set [4] (Solution in water, 10 mg/mL, 25° C., injection time point 0 min); 99.63% in data set [4] (Solution in water, 10 mg/mL, 25° C., injection time point 20 min); 99.39% in data set [4] (Solution in water, 10 mg/mL, 25° C., injection time point 40 min); 99.02% in data set [4] (Solution in water, 10 mg/mL, 25° C., injection time point 80 min); 98.58% in data set [4] (Solution in water, 10 mg/mL, 25° C., injection time point 120 min). Besides, the “HPLC contents (%) guadecitabine sodium” value in data set [4] (Solution in water, 10 mg/mL, 25° C., injection time point 160 min) amounted to 98.16%; in data set [4] (Solution in water, 10 mg/mL, 25° C., injection time point 200 min), 97.56%; in data set [4] (Solution in water, 10 mg/mL, 25° C., injection time point 240 min) it was 97.11%; in data set [4] (Solution in water, 10 mg/mL, 25° C., injection time point 280 min), 96.29%; in data set [2] (Suspension in methanol/water (9/1), 40° C., injection time point 240 min), 99.76%.
